Measured values reported in US4272437A, “Antibacterial agents, and 4-thio azetidinone intermediates” (priority 1979, dated 1981).
Values after ≈ are worked out from the molar mass of the structure shown. Read-outs that look alike come from different tables or passages of the source.

Tests used:
[1] = tested on: Str. pneumoniae A-9585; assay: MIC, tube dilution, Streptococcus pneumoniae A9585; assay type: cell-based; settings: overnight 37° C., Nutrient Broth; for Minimum Inhibitory Concentration (M.I.C.): Str. pneumoniae A9585
Text: (§1) Representative compounds of the present invention were subjected to in vitro antibiotic screening against a variety of microorganisms.

[2] = tested on: Str. pyogenes A-9604; assay: MIC, tube dilution, Streptococcus pyogenes A9604; assay type: cell-based; settings: overnight 37° C., Nutrient Broth; for MIC: Streptococcus pyogenes, A9604, Str. pyogenes A9604, read-out: Minimum Inhibitory Concentration (M.I.C.); for Minimum Inhibitory Concentration (M.I.C.): Str. pyogenes A9604
Text: as §1

[3] = tested on: Staph. aureus A-9537; assay: MIC, tube dilution, Staphylococcus aureus A9537; assay type: cell-based; settings: overnight 37° C., Nutrient Broth; for MIC: Staphylococcus aureus, A9537, Staph. aureus A9537, read-out: Minimum Inhibitory Concentration (M.I.C.); for Minimum Inhibitory Concentration (M.I.C.): Staph. aureus A9537
Text: as §1

[4] = tested on: Staph. aureus A-9537 and 50% serum; assay: MIC, tube dilution, Staph. aureus A9537 + 50% serum; assay type: cell-based, Staphylococcus aureus; settings: overnight 37° C.; for MIC: Staphylococcus aureus, read-out: Minimum Inhibitory Concentration (M.I.C.)
Text: as §1

[5] = tested on: Staph. aureus (Pen-Res) A-9606; assay: MIC, tube dilution, Staphylococcus aureus A9606 (Pen-Res); assay type: cell-based; settings: overnight 37° C.; for MIC: Staphylococcus aureus
Text: as §1

[6] = tested on: Staph. aureus (Meth-Res) A-15097; assay: MIC, tube dilution, Staphylococcus aureus A15097 (Meth-Res); assay type: cell-based; settings: overnight 37° C.; for MIC: Staphylococcus aureus
Text: as §1

[7] = tested on: Str. faecalis A-20688; assay: MIC, tube dilution, Streptococcus faecalis A20688; assay type: cell-based; settings: overnight 37° C.; for MIC: Enterococcus faecalis, A20688, Str. faecalis A20688, read-out: Minimum Inhibitory Concentration (M.I.C.); for Minimum Inhibitory Concentration (M.I.C.): Str. faecalis A20688
Text: as §1

[8] = tested on: E. coli A-15119; assay: MIC, tube dilution, Escherichia coli A15119; assay type: cell-based; settings: overnight 37° C.; for MIC: Escherichia coli, A15119, E. coli A15119, read-out: Minimum Inhibitory Concentration (M.I.C.); for Minimum Inhibitory Concentration (M.I.C.): E. coli A15119
Text: as §1

[9] = tested on: E. coli A-20341-1; assay: MIC, tube dilution, Escherichia coli A20341-1; assay type: cell-based
Text: as §1

[10] = tested on: K. pneumoniae A-15130; assay: MIC, tube dilution, Klebsiella pneumoniae A15130; assay type: cell-based; settings: overnight 37° C.; for MIC: Klebsiella pneumoniae, A15130, K. pneumoniae A15130, read-out: Minimum Inhibitory Concentration (M.I.C.); for Minimum Inhibitory Concentration (M.I.C.): K. pneumoniae A15130
Text: as §1

[11] = tested on: Klebsiella species A20468; assay: MIC, tube dilution, Klebsiella species A20468; assay type: cell-based; settings: Klebsiella species (K. pneumoniae) A20468, overnight 37° C.; for MIC: read-out: Minimum Inhibitory Concentration (M.I.C.)
Text: as §1

[12] = tested on: Pr. mirabilis A-9900; assay: MIC, tube dilution, Proteus mirabilis A9900; assay type: cell-based; settings: overnight 37° C.; for MIC: Proteus mirabilis, A9900, Proteus mirabilis A9900, read-out: Minimum Inhibitory Concentration (M.I.C.); for Minimum Inhibitory Concentration (M.I.C.): Proteus mirabilis A9900
Text: as §1

[13] = tested on: Pr. vulgaris A-9716; assay: MIC, tube dilution, Proteus vulgaris / Proteus mirabilis A9716; assay type: cell-based, Proteus vulgaris (name changed to Proteus mirabilis); settings: overnight 37° C.; for MIC: Proteus vulgaris; for Minimum Inhibitory Concentration (M.I.C.): Proteus vulgaris / Proteus mirabilis A9716
Text: as §1

[14] = tested on: Pr. morganii A-15153; assay: MIC, tube dilution, Proteus morganii A15153; assay type: cell-based; settings: overnight 37° C.; for MIC: Morganella morganii, A15153, Proteus morganii A15153, read-out: Minimum Inhibitory Concentration (M.I.C.); for Minimum Inhibitory Concentration (M.I.C.): Proteus morganii A15153
Text: as §1

[15] = tested on: Providencia stuartii A21205; assay: MIC, tube dilution, Providencia stuartii (Pr. rettgeri) A21205; assay type: cell-based; settings: for MIC: Providencia stuartii; for Minimum Inhibitory Concentration (M.I.C.): Providencia stuartii (Pr. rettgeri) A21205
Text: as §1

[16] = tested on: Ser. marcescens A-20019; assay: MIC, tube dilution, Serratia marcescens A20019; assay type: cell-based; settings: overnight 37° C.; for MIC: Serratia marcescens, A20019, Serratia marcescens A20019, read-out: Minimum Inhibitory Concentration (M.I.C.); for Minimum Inhibitory Concentration (M.I.C.): Serratia marcescens A20019
Text: as §1

[17] = tested on: Ent. cloacae A-9659; assay: MIC, tube dilution, Enterobacter cloacae A9659; assay type: cell-based; settings: overnight 37° C.; for MIC: Enterobacter cloacae, A9659, Enterobacter cloacae A9659, read-out: Minimum Inhibitory Concentration (M.I.C.); for Minimum Inhibitory Concentration (M.I.C.): Enterobacter cloacae A9659
Text: as §1

[18] = tested on: Ent. cloacae A-9656; assay: MIC, tube dilution, Enterobacter cloacae A9656; assay type: cell-based; settings: overnight 37° C.; for MIC: read-out: Minimum Inhibitory Concentration (M.I.C.)
Text: as §1

[19] = tested on: Ps. aeruginosa A-9843A; assay: MIC, tube dilution, Pseudomonas aeruginosa A9843A; assay type: cell-based; settings: overnight 37° C.; for MIC: Pseudomonas aeruginosa, A9843A, read-out: Minimum Inhibitory Concentration (M.I.C.), Pseudomonas aeruginosa A9843A
Text: as §1

[20] = tested on: Ps. aeruginosa A-21213; assay: MIC, tube dilution, Pseudomonas aeruginosa A21213; assay type: cell-based; settings: Pseudomonas aeruginosa A21213, overnight 37° C.; for MIC: read-out: Minimum Inhibitory Concentration (M.I.C.)
Text: as §1

[21] = Staph. aureus A9606 (Pen-Res), read-out: Minimum Inhibitory Concentration (M.I.C.)
[22] = Staph. aureus A15097 (Meth-Res), read-out: Minimum Inhibitory Concentration (M.I.C.)
[23] = Escherichia coli, A203411, E. coli A20341-1; overnight 37° C.; read-out: Minimum Inhibitory Concentration (M.I.C.)
[24] = A21205, Providencia stuartii (Pr. rettgeri) A21205, overnight 37° C., read-out: Minimum Inhibitory Concentration (M.I.C.)
[25] = Enterobacter cloacae, A9656, Enterobacter cloacae A9656
[26] = Staph. aureus A15097 (Meth-Res)
[27] = Escherichia coli, A203411; E. coli A20341-1; overnight 37° C.; read-out: Minimum Inhibitory Concentration (M.I.C.)

| SMILES | MIC [2] | MIC [3] | MIC [4] | MIC [5, 21] | MIC [6, 22] | MIC [7] | MIC [8] | MIC [9, 23] | MIC [10] | MIC [11] | MIC [12] | MIC [14] | MIC [15, 24] | MIC [16] | MIC [17] | MIC [18, 25] | Minimum Inhibitory Concentration (M.I.C.) [1] | Minimum Inhibitory Concentration (M.I.C.) ([5]; Staph. aureus A9606 (Pen-Res)) | Minimum Inhibitory Concentration (M.I.C.) [12] | Minimum Inhibitory Concentration (M.I.C.) ([18]; Enterobacter cloacae A9656) | also measured |
| --- | --- | --- | --- | --- | --- | --- | --- | --- | --- | --- | --- | --- | --- | --- | --- | --- | --- | --- | --- | --- | --- |
| CC1=C(C(=O)O)N2C(=O)C(C(O)c3ccccc3)C2S1 (stereo not shown) [Example 4] | 4 µg/mL (≈ 13.7 µM) | 8 µg/mL (≈ 27.5 µM) | > 63 µg/mL | 4 µg/mL (≈ 13.7 µM) | 125 µg/mL (≈ 429 µM) | 125 µg/mL (≈ 429 µM) | > 125 µg/mL | > 125 µg/mL | > 125 µg/mL | > 125 µg/mL | 63 µg/mL (≈ 216 µM) | 125 µg/mL (≈ 429 µM) | 125 µg/mL (≈ 429 µM) | > 125 µg/mL | > 125 µg/mL | > 125 µg/mL |  |  |  |  | MIC ([1]; Streptococcus pneumoniae, A9585, Str. pneumoniae A9585, read-out: Minimum Inhibitory Concentration (M.I.C.)): 1 µg/mL (≈ 3.43 µM); MIC ([13]; A9716, Proteus vulgaris / Proteus mirabilis A9716, read-out: Minimum Inhibitory Concentration (M.I.C.)): 63 µg/mL (≈ 216 µM) |
| CC1=C(C(=O)O)N2C(=O)C[C@H]2S1 [Preparation 4(+), (+)-2-Methylpenem-3-carboxylic Acid] |  |  |  |  |  |  |  |  |  |  |  |  |  |  |  |  | 0.06 µg/mL | 0.5 µg/mL | 4 µg/mL | 8 µg/mL | Minimum Inhibitory Concentration (M.I.C.) [2]: 0.25 µg/mL; Minimum Inhibitory Concentration (M.I.C.) [3]: 0.5 µg/mL; Minimum Inhibitory Concentration (M.I.C.) [4]: 4 µg/mL; Minimum Inhibitory Concentration (M.I.C.) [8]: 4 µg/mL; Minimum Inhibitory Concentration (M.I.C.) [10]: 8 µg/mL; Minimum Inhibitory Concentration (M.I.C.) [11]: > 125 µg/mL; Minimum Inhibitory Concentration (M.I.C.) [13]: 4 µg/mL; Minimum Inhibitory Concentration (M.I.C.) [14]: 8 µg/mL; Minimum Inhibitory Concentration (M.I.C.) ([15]; overnight 37° C.): 4 µg/mL; Minimum Inhibitory Concentration (M.I.C.) [16]: 4 µg/mL; Minimum Inhibitory Concentration (M.I.C.) [17]: 8 µg/mL |
| CSCC1=C(C(=O)O)N2C(=O)C[C@H]2S1 [Preparation 9, 2-Methylthiomethylpenem-3-carboxylic Acid] | 0.25 µg/mL (≈ 1.08 µM) | 0.5 µg/mL (≈ 2.16 µM) | 63 µg/mL | 8 µg/mL (≈ 34.6 µM) | 16 µg/mL (≈ 69.2 µM) | 63 µg/mL (≈ 272 µM) | 1 µg/mL (≈ 4.32 µM) | 63 µg/mL (≈ 272 µM) | 16 µg/mL (≈ 69.2 µM) | > 125 µg/mL | 1 µg/mL (≈ 4.32 µM) | 4 µg/mL (≈ 17.3 µM) | 2 µg/mL (≈ 8.65 µM) | 4 µg/mL (≈ 17.3 µM) | 4 µg/mL (≈ 17.3 µM) | 16 µg/mL (≈ 69.2 µM) |  | 4 µg/mL |  | 8 µg/mL | Minimum Inhibitory Concentration (M.I.C.) [6, 26]: 8 µg/mL; Minimum Inhibitory Concentration (M.I.C.) [7]: 32 µg/mL; MIC [9, 27]: > 125 µg/mL; MIC [19]: > 125 µg/mL; MIC [20]: > 125 µg/mL |
| CCCCCC1=C(C(=O)[O-])N2C(=O)C[C@H]2S1.[K+] [Preparation 16, Potassium 2-Pentylpenem-3-carboxylate] |  |  | > 63 µg/mL |  |  | 32 µg/mL | 63 µg/mL |  | > 125 µg/mL | > 125 µg/mL | 4 µg/mL | 16 µg/mL |  | 125 µg/mL | > 125 µg/mL |  |  |  | 8 µg/mL |  | MIC ([5]; read-out: Minimum Inhibitory Concentration (M.I.C.), Staph. aureus A9606 (Pen-Res)): 4 µg/mL; MIC ([6]; read-out: Minimum Inhibitory Concentration (M.I.C.), Staph. aureus A15097 (Meth-Res)): 125 µg/mL; MIC [9, 27]: > 125 µg/mL; Minimum Inhibitory Concentration (M.I.C.) [13]: 8 µg/mL; MIC ([13]; A9716, read-out: Minimum Inhibitory Concentration (M.I.C.), Proteus vulgaris / Proteus mirabilis A9716): 4 µg/mL; MIC ([15]; A21205, read-out: Minimum Inhibitory Concentration (M.I.C.)): 16 µg/mL; MIC ([18]; Enterobacter cloacae A9656): 125 µg/mL; MIC [19]: > 125 µg/mL; MIC [20]: > 125 µg/mL |
| CCC1C(=O)N2C(C(=O)[O-])=C(C)S[C@H]12.[Na+] (stereo partly drawn) [1 (trans), Sodium 6-Ethyl-2-methylpenem-3-carboxylate] |  |  |  |  |  |  |  |  |  |  |  |  |  |  |  |  | 2 µg/mL | 8 µg/mL | 125 µg/mL | > 125 µg/mL | Minimum Inhibitory Concentration (M.I.C.) [2]: 4 µg/mL; Minimum Inhibitory Concentration (M.I.C.) [3]: 8 µg/mL; Minimum Inhibitory Concentration (M.I.C.) [4]: > 63 µg/mL; Minimum Inhibitory Concentration (M.I.C.) [6, 26]: 8 µg/mL; Minimum Inhibitory Concentration (M.I.C.) [7]: > 125 µg/mL; Minimum Inhibitory Concentration (M.I.C.) [8]: 125 µg/mL; Minimum Inhibitory Concentration (M.I.C.) ([9]; E. coli A20341-1; overnight 37° C.): 125 µg/mL; Minimum Inhibitory Concentration (M.I.C.) [10]: > 125 µg/mL; Minimum Inhibitory Concentration (M.I.C.) [11]: > 125 µg/mL; Minimum Inhibitory Concentration (M.I.C.) [14]: > 125 µg/mL; Minimum Inhibitory Concentration (M.I.C.) ([15]; overnight 37° C.): 63 µg/mL; Minimum Inhibitory Concentration (M.I.C.) [16]: > 125 µg/mL; Minimum Inhibitory Concentration (M.I.C.) [17]: > 125 µg/mL; Minimum Inhibitory Concentration (M.I.C.) ([19]; Pseudomonas aeruginosa A9843A): > 125 µg/mL; Minimum Inhibitory Concentration (M.I.C.) [20]: > 125 µg/mL |
